From US20070161585A1, “Immunopotentiator and method for enhancing immunoactivity using the same” (priority 2003, published 2007)

Assays:
[1] = test system: inflammatory cytokines in the serum of the mouse; experiment: Serum inflammatory cytokines by ELISA after simultaneous administration of Gm^6ATC sequence and non-methylated CpG sequence to mice; assay type: in vivo; settings: 5 nmol CpG-ODN1668 alone or mixed with equimolar second ODN, 400 μl saline, 2 hours later, mean (n=4)
Method: Accordingly, the Gm^6ATC sequence and CpG-ODN1668 containing the non-methylated sequence were simultaneously administered to a mouse to confirm an effect of inducting inflammatory cytokines. Regarding the doses of Gm^6ATC, GATC-dA and CpG-ODN1668, 5 nmol of CpG-ODN1668 was mixed with an equimolar amount of Gm^6ATC or GATC-dA, and the mixture was dissolved in 400 μl of a physiological saline solution. The resulting solution was administered to a mouse. Two hours later, the inflammatory cytokines in the serum of the mouse were measured by ELISA to confirm induction amounts.
The results shown in FIGS. 4 to 6 are expressed in terms of a mean value±standard deviation (n=4). In the graphs, one asterisk indicates “P<0.05”, two asterisks “P<0.01” and three asterisks “P<0.005”.

[2] = test system: inflammatory cytokines (IL-6, IL-12 and TNF-α) in the serum; experiment: Serum inflammatory cytokines by ELISA after single intraperitoneal administration of ODN to mice; assay type: in vivo; settings: Balb/c mouse; for IL-6 concentration in the serum / IL-12 concentration in the serum / TNF-α concentration in the serum: 10 nmol ODN in 400 μl saline, 2 hours later, mean; for Induction of inflammatory cytokines (in words): 10 nmol ODN, serum 2 hours later
Method: 10 nmol of each of GATC-dA (sequence containing a GATC sequence), GATC-m^6A (sequence containing a Gm^6ATC sequence), CpG-ODN1668 (sequence containing a non-methylated CpG sequence) and GpC-ODN1720 (sequence containing a […]) shown in Table 1 was collected, and dissolved in 400 μl of a physiological saline solution. The resulting solution was intraperitoneally administered to a Balb/c mouse (male, 6 weeks old; Sankyo Labo-Service). Two hours later, concentrations of inflammatory cytokines (IL-6, IL-12 and TNF-α) in the serum were measured by an enzyme-linked immunosorbent assay (ELISA; AN'ALIZA, Genzyme TECHNE corp.).
Two hours after the administration, the blood was collected from the heart of the mouse, and allowed to stand overnight at 4° C. The serum was collected therefrom by centrifugation (20,000 g, 20 minutes, 4° C.).
By the way, the results shown in FIGS. 1 to 3 are expressed in terms of a mean value±standard deviation. In the graphs, two asterisks indicate “P<0.01”, and three asterisks “P<0.005 (n=3 (IL-12), 4 (IL-6, TNF-α)))”.

Row | Substance | IL-6 concentration in the serum [1] [pg/mL] | IL-12 concentration in the serum [1] [pg/mL] | TNF-α concentration in the serum [1] [pg/mL] | IL-6 concentration in the serum [2] [pg/mL] | IL-12 concentration in the serum [2] [pg/mL] | TNF-α concentration in the serum [2] [pg/mL] | Induction of inflammatory cytokines (in words) [2]
1 | CpG-ODN1668: phosphothioate-stabilized oligonucleotide, non-methylated CpG motif, TCCATGACGTTCCTGATGCT (DNA TCCATGACGTTCCTGATGCT; phosphorothioate backbone, chemistry not fully specified) | 530 | 730 | 760 | 2100 | 1000 | 1500 | very strong inflammatory cytokines were induced
2 | GATC-dA: phosphothioate-stabilized oligonucleotide, non-m^6A motif, TCCATGATCTTCCTGATGCT (DNA TCCATGATCTTCCTGATGCT; phosphorothioate backbone, chemistry not fully specified) |  |  |  | 14 | 48 | 92 | 
3 | GpC-ODN1720: phosphothioate-stabilized oligonucleotide, non CpG motif, CC ATG AGC TTC CTG ATG CT (DNA CCATGAGCTTCCTGATGCT; phosphorothioate backbone, chemistry not fully specified) |  |  |  | 28 | 33 | 47 | little induced
